Article PMC2915899 (Journal of medicinal chemistry, 2010)

What was measured:
[1] = tested on: NadD; experiment: NadD inhibition, enzyme species not stated at the place; format: biochemical; conditions: 1_02_1 compared with 1_13 and 1_15 (Fig. 4A)
[2] = biological target: baNadD (Bacillus anthracis, UniProt C3L5T6); format: biochemical
Sequence of baNadD (C3L5T6 whole entry, looked up): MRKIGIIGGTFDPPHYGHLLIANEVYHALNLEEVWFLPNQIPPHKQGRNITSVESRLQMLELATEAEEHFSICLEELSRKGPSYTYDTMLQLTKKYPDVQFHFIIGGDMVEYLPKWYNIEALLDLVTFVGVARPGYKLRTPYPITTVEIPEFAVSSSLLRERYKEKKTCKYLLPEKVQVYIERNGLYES

Compound	improvement in activity over monomeric precursors 1_13 and 1_15 [1]	inhibition of baNadD [2]
O=C(CCC(=O)Nc1ccccc1Cl)N/N=C/c1ccc(/C=N/NC(=O)CCC(=O)Nc2ccccc2Cl)cc1 [Compound 1_02_1, N-(2-Chloro-phenyl)-3-(4-{[3-(2-chloro-phenylcarbamoyl)-propionyl]-hydrazonomethyl}-benzylidene-hydrazinocarbonyl)-propionamide]	more than 10 fold	
{N'-(4-{Carboxymethyl-[3-(2-chloro-phenylcarbamoyl)-propionyl]-hydrazonomethyl}-benzylidene)-N-[3-(2-chloro-phenylcarbamoyl)-propionyl]-hydrazino}-acetic acid [Compound 1_02_2]		did not inhibit
